Laboratory results published in PMC10112521, “High-throughput AR dimerization assay identifies androgen disrupting chemicals and metabolites” (Frontiers in Toxicology, 2023).
Where two headings read alike, the source gives them in different places.

How the values were obtained:
[1] = test system: AR2 cells (HepG2-AR2)
Description: (§1) For antagonist mode and cytotoxicity data, well-level normalized response (resp) was calculated as: resp=100 * RLU−bval/pval−bval where pval is the median RLU value of the MEC positive control wells (minimum four wells).

[2] = test system: full-length human AR and the receptor interacting domain (RID) of SRC1; design: method as in U.S. EPA, 2002b; conditions: cited from earlier work
[3] = test system: human AR (LBD and AF2 domains) and the RID of human SRC2; design: method as in U.S. EPA, 2002b; conditions: activity call, agonist mode, 2 h; invitroDBv3.4 ref U.S. EPA, 2002b; cited from earlier work
[4] = test system: AR; design: method as in Kleinstreuer et al., 2017; conditions: cited from earlier work
[5] = test system: AR2 cells (HepG2-AR2); test: Alamar Blue (resazurin) post hoc cell viability / cytotoxicity assay in AR2 cells
Description: as §1

[6] = target: T1, human AR (Homo sapiens, UniProt P10275); test: AR2 assay, agonist mode: ligand-dependent AR homodimerization (NanoBiT luciferase complementation) in stable HepG2-AR2 cells; type: cell-based; conditions: for AR2 agonist: activity call, agonist mode; for hill_tp / max_med / win_model / hill_gw: sheet agonist_fits; for hill_tp: Hill model top (efficacy); for hill_tp / hill_gw: 0 given where win_model is Constant; for max_med: maximum median response; for win_model: winning concentration-response model (Constant, Hill, Gain-Loss); for hill_gw: Hill model gain slope (Hill coefficient);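 for hill tp: Log2 fold change of luminescence over DMSO vehicle wells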;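 for max med: Log2 fold change of luminescence over DMSO vehicle wells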
T1 sequence (P10275 1-920) 1: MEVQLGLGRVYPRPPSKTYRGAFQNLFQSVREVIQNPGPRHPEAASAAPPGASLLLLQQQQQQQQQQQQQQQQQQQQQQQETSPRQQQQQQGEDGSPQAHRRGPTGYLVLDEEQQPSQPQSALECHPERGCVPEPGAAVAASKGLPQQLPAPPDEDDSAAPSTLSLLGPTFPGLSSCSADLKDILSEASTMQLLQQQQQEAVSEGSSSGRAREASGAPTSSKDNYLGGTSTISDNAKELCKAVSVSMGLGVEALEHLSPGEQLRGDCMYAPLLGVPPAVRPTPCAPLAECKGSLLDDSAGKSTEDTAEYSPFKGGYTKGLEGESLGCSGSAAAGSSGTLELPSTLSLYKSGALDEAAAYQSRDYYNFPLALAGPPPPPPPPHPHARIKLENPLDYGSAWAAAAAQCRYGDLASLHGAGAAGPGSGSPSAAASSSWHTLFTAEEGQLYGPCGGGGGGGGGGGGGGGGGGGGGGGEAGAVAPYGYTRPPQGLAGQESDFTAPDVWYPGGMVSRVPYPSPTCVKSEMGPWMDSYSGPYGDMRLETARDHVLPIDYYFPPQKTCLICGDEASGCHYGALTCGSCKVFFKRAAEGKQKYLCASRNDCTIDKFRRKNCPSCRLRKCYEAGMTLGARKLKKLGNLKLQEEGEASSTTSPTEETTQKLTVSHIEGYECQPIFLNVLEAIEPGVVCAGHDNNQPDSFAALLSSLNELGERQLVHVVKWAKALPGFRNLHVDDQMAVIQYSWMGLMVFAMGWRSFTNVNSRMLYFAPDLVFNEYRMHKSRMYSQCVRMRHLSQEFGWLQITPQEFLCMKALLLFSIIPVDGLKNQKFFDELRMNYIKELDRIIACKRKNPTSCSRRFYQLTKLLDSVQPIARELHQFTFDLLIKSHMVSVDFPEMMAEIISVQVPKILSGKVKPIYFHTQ
T1 sequence (P10275 1-920) 2: T1 sequence (P10275 1-920) 1

[7] = target: T1, human AR; test: AR2 assay, antagonist mode: disruption of R1881 (10 nM)-induced AR homodimerization in HepG2-AR2 cells; type: cell-based
[8] = target: T1, human AR; test: cell-based; design: species or system AR2 cells (HepG2-AR2); NanoLuc complementation AR homodimerization, antagonist mode, loss of agonist-induced luminescence, AC50 by Hill fit; conditions: antagonist mode, 10 nM agonist stimulus, 18 h, no CYP expressed
[9] = target: T1, human AR; test: cell-based; design: species or system AR2 cells (HepG2-AR2); NanoLuc complementation AR homodimerization, agonist mode, luminescence gain, AC50 by Hill fit; conditions: agonist mode, 18 h, no CYP expressed
[10] = AR agonist reference class ref Kleinstreuer et al., 2017
[11] = spid Viability, sheet antagonist_fits
[12] = spid Viability, sheet antagonist_fits, 0 where win_model is Constant
[13] = spid AR_antagonist, sheet antagonist_fits
[14] = spid AR_antagonist, sheet antagonist_fits, 0 where win_model is Constant
[15] = activity call, 8 h, single protocol detects agonists and antagonists, invitroDBv3.4 ref U.S. EPA, 2002b
[16] = activity call, 16 h, single protocol detects agonists and antagonists, invitroDBv3.4 ref U.S. EPA, 2002b
[17] = spid=Bgal, read-out: hill_ga (converted)
[18] = spid=No_RNA, read-out: hill_ga (converted)

## C[C@]12CCC(=O)C[C@@H]1CC[C@@H]1[C@@H]2CC[C@]2(C)[C@@H](O)CC[C@@H]12 [5alpha-Dihydrotestosterone]
[1]
  hill_ga (Hill model log AC50): 1.263
[2]
  OT 8 hr: 1
  OT 16 hr: 1
[3]
  UPitt agonist: 0
[4]
  Agonist reference: Moderate
[5]
  hill_tp (Hill model top): 25.0955
  max_med (maximum median response): 25.6282

## C[C@]12CC[C@@H]3c4ccc(O)cc4CC[C@H]3[C@@H]1CC[C@H]2O [17alpha-Estradiol]
[2]
  OT 8 hr: 1
  OT 16 hr: 1
[3]
  UPitt agonist: 1
[4]; [10]
  Agonist reference: Inactive
[5]; [11]
  max_med (maximum median response): 9.057
[5]; [12]
  hill_tp (Hill model top): 0

## CCCCNC(=O)n1c(NC(=O)OC)nc2ccccc21 [Benomyl]
[6]; 18 h
  AR2 agonist: 0
[6]
  hill_tp: 0
  max_med: 0.04446
  win_model: Constant
[7]
  hill_tp (Hill model top): 30.7847
  max_med (maximum median response): 31.5571
[7]; [13]
  win_model (winning concentration-response model): Hill
[7]; [14]
  hill_gw (Hill model slope): 3.063
[1]
  hill_ga (Hill model log AC50): 0.6267
[2]; [15]
  OT 8 hr: 0
[2]; [16]
  OT 16 hr: 1
[3]
  UPitt agonist: 0
[4]; [10]
  Agonist reference: Inactive
[5]; [11]
  max_med (maximum median response): 28.9418
[5]; [12]
  hill_tp (Hill model top): 26.9649

## C[C@]12CC[C@@H]3c4ccc(O)cc4CC[C@H]3[C@@H]1CCC2=O [Estrone]
[6]
  hill_gw: 0.4978
  hill_tp: 4.258
  max_med: 3.757
  win_model: Hill
[7]; [13]
  max_med (maximum median response): 84.5958
  win_model (winning concentration-response model): Hill
[7]; [14]
  hill_gw (Hill model slope): 1.278
  hill_tp (Hill model top): 83.5344
[8]; [17]
  AC50: 0.556 µM
[8]; [18]
  AC50: 0.707 µM
[9]; [17]
  AC50: 4.32 µM
[9]; [18]
  AC50: 2.63 µM
[5]; [11]
  max_med (maximum median response): 20.7469
[5]; [12]
  hill_tp (Hill model top): 20.0823

## C[C@]12CC[C@@H]3c4ccc(O)cc4C[C@@H](CCCCCCCCC[S+]([O-])CCCC(F)(F)C(F)(F)F)[C@H]3[C@@H]1CC[C@@H]2O (stereo partly drawn) [Fulvestrant]
[6]; 18 h
  AR2 agonist: 0
[6]
  hill_tp: 0
  max_med: 0.04086
  win_model: Constant
[7]; [13]
  max_med (maximum median response): 30.2853
  win_model (winning concentration-response model): Hill
[7]; [14]
  hill_gw (Hill model slope): 0.7802
  hill_tp (Hill model top): 36.6036
[2]; [15]
  OT 8 hr: 0
[2]; [16]
  OT 16 hr: 0
[3]
  UPitt agonist: 0
[4]; [10]
  Agonist reference: Inactive
[5]; [11]
  max_med (maximum median response): 0.2489
[5]; [12]
  hill_tp (Hill model top): 0

## N#Cc1ccc(C(c2ccc(C#N)cc2)n2cncn2)cc1 [Letrozole]
[6]
  hill_gw: 3.273
  hill_tp: 5.82
  max_med: 6.074
  win_model: Gain-Loss
[7]; [13]
  max_med (maximum median response): 39.7548
  win_model (winning concentration-response model): Hill
[7]; [14]
  hill_gw (Hill model slope): 1.809
  hill_tp (Hill model top): 49.9358
[8]; hill_ga, spid=No_RNA
  AC50: 54.9 µM
[9]; hill_ga, spid=Bgal
  AC50: > 99.9 µM
[5]; [11]
  max_med (maximum median response): 11.0349
[5]; [12]
  hill_tp (Hill model top): 0

## O=C1C[C@@H](c2ccc(O)cc2)Oc2cc(O)cc(O)c21 [Naringenin]
[6]
  hill_gw: 8
  hill_tp: 0.1206
  max_med: 0.1409
  win_model: Gain-Loss
[7]
  hill_tp (Hill model top): 38.8754
  max_med (maximum median response): 37.0321
[7]; [13]
  win_model (winning concentration-response model): Hill
[7]; [14]
  hill_gw (Hill model slope): 8
[8]; hill_ga, spid=Bgal
  AC50: 49.8 µM
[8]; hill_ga, spid=No_RNA
  AC50: 57.7 µM
[9]; hill_ga, spid=Bgal
  AC50: > 99.9 µM
[5]; [11]
  max_med (maximum median response): 0.3009
[5]; [12]
  hill_tp (Hill model top): 0

## CC(C)=CC1C(C(=O)OCN2C(=O)C3=C(CCCC3)C2=O)C1(C)C (stereo not drawn) [Tetramethrin]
[6]; 128-chemical evaluation, 18 h, active = maximal median response >5*bmad
  activity call in agonist mode: inactive
[6]; 18 h
  AR2 agonist: 0
[6]
  hill_gw: 4.525
  hill_tp: 0.4941
  max_med: 0.4102
  win_model: Hill
[7]; [13]
  max_med (maximum median response): 7.623
  win_model (winning concentration-response model): Hill
[7]; [14]
  hill_gw (Hill model slope): 3.974
  hill_tp (Hill model top): 4.695
[2]; [15]
  OT 8 hr: 1
[2]; [16]
  OT 16 hr: 1
[3]
  UPitt agonist: 0
[4]; [10]
  Agonist reference: Inactive
[8]; [17]
  AC50: 43.1 µM
[5]; [11]
  max_med (maximum median response): 11.4832
[5]; [12]
  hill_tp (Hill model top): 20.7059

## CCCN(CCC)c1c([N+](=O)[O-])cc(C(F)(F)F)cc1[N+](=O)[O-] [Trifluralin]
[6]
  hill_gw: 0.3
  hill_tp: 0.2593
  max_med: 0.1998
  win_model: Gain-Loss
[7]
  hill_tp (Hill model top): 55.7657
  max_med (maximum median response): 39.0604
[7]; [13]
  win_model (winning concentration-response model): Hill
[7]; [14]
  hill_gw (Hill model slope): 1.383
[8]; hill_ga, spid=Bgal
  AC50: 52.2 µM
[8]; hill_ga, spid=No_RNA
  AC50: 47.5 µM
[9]; hill_ga, spid=No_RNA
  AC50: > 99.9 µM
[5]; [11]
  max_med (maximum median response): 33.7321
[5]; [12]
  hill_tp (Hill model top): 18.5971
